Test results reported in ChEMBL document CHEMBL5375954, “Discovery and Evaluation of C6-Substituted Pyrazolopyrimidine-Based Bisphosphonate Inhibitors of the Human Geranylgeranyl Pyrophosphate Synthase and Evaluation of Their Antitumor Efficacy in Multiple Myeloma, Pancreatic Ductal Adenocarcinoma, and Colorectal Cancer” (J Med Chem, 2023).
Calls of active or inactive are those of the source. The rule behind the calls is not given here.

Columns and labels:
[1] = Metabolic stability in human liver microsomes assessed as compound remaining incubated for 45 mins in presence of NADPH by LC-MS/MS analysis; format: ADME, Microsome; details: 0.75 h
[2] = AUC(0 to t) in Sprague-Dawley rat at 3 mg/kg, iv measured for 24 hrs by LC-MS/MS analysis; format: ADME, organism-based; parameters: dose 3 mg/kg, time 24 hrs, route iv; details: in vivo
[3] = Toxicity in NSG mouse xenografted with human MIA PaCa-2 cells assessed as signs of distress at 3 mg/kg, ip administered 3 times a week for 26 days and measured daily; format: organism-based; details: in vivo, time 26 day
MIA PaCa-2 [4] = test: Induction of apoptosis in human MIA PaCa-2 cells at 1 uM incubated for 72 hrs in presence of geranylgeraniol by APC-Annexin-V/7-AAD staining based flow cytometry; format: functional, cell-based
[5] = Hepatotoxicity in female NSG mouse xenografted with human RPMI-8226 cells assessed as serum AST level at 3 mg/kg, ip administered 3 times a week for 26 days and measured 48 hrs post last dose (reference value: 84 to 229 IU/L); format: toxicity, organism-based; details: in vivo, 672 h, time 28 day
[6] = Hepatotoxicity in male NSG mouse xenografted with human RPMI-8226 cells assessed as serum AST level at 3 mg/kg, ip administered 3 times a week for 26 days and measured 48 hrs post last dose (reference value: 76 to 78 IU/L); format: toxicity, organism-based; details: in vivo, 672 h, time 28 day
Cytochrome P450 2D6 = Cytochrome P450 2D6 (Homo sapiens, UniProt P10635); test: Inhibition of CYP2D6 (unknown origin); format: ADME
MIA PaCa-2 [7] = test: Antitumor activity against human MIA PaCa-2 cells xenografted in NSG mouse assessed as difference in tumor volume at 3 mg/kg, ip administered 3 times a week for 26 days and measured 48 hrs post last dose; format: functional, organism-based; details: time 28.0 day
[8] = Hepatotoxicity in male NSG mouse xenografted with human RPMI-8226 cells assessed as prominent nucleoli at 3 mg/kg, ip administered 3 times a week for 26 days and measured 48 hrs post last dose by H and E staining based assay; format: toxicity, organism-based; details: in vivo, 672 h, time 28 day
[9] = Toxicity in NSG mouse xenografted with human MIA PaCa-2 cells assessed as morbidity at 3 mg/kg, ip administered 3 times a week for 26 days and measured daily; format: organism-based; details: in vivo, time 26 day
[10] = Hepatotoxicity in female NSG mouse xenografted with human RPMI-8226 cells assessed as prominent nucleoli at 3 mg/kg, ip administered 3 times a week for 26 days and measured 48 hrs post last dose by H and E staining based assay; format: toxicity, organism-based; details: in vivo, 672 h, time 28 day
[11] = Plasma clearance in Sprague-Dawley rat at 3 mg/kg, iv measured for 24 hrs by LC-MS/MS analysis; format: ADME, organism-based
MIA PaCa-2 [12] = test: Induction of apoptosis in human MIA PaCa-2 cells assessed as necrotic cells at 1 uM incubated for 72 hrs by APC-Annexin-V/7-AAD staining based flow cytometry (reference value: 0.75%); format: functional
[13] = Hepatotoxicity in female NSG mouse xenografted with human RPMI-8226 cells assessed as foci of necrosis at 3 mg/kg, ip administered 3 times a week for 26 days and measured 48 hrs post last dose by H and E staining based assay; format: toxicity, organism-based; details: in vivo, 672 h, time 28 day
HCT-116 [14] = test: Induction of apoptosis in human HCT-116 cells assessed as necrotic cells at 1 uM incubated for 72 hrs in presence of geranylgeraniol by APC-Annexin-V/7-AAD staining based flow cytometry (reference value: 2.99%); format: functional
[15] = Metabolic stability in Beagle dog liver microsomes assessed as compound remaining incubated for 45 mins in presence of NADPH by LC-MS/MS analysis; format: ADME, Canis lupus familiaris, Microsome; details: 0.75 h
[16] = Hepatotoxicity in female NSG mouse xenografted with human RPMI-8226 cells assessed as eosinophilic degeneration at 3 mg/kg, ip administered 3 times a week for 26 days and measured 48 hrs post last dose by H and E staining based assay; format: toxicity, organism-based; details: in vivo, 672 h, time 28 day
[17] = Hepatotoxicity in female NSG mouse xenografted with human RPMI-8226 cells assessed as vasculitis or perivasculitis at 3 mg/kg, ip administered 3 times a week for 26 days and measured 48 hrs post last dose by H and E staining based assay; format: toxicity, organism-based; details: in vivo, 672 h, time 28 day
[18] = target: T1, Farnesyl pyrophosphate synthase (Homo sapiens) (UniProt P14324); test: Inhibition of N-terminally His6-tagged recombinant human FPPS expressed in Escherichia coli BL21(DE3) cells using […] and [14C]IPP as substrate at 10 uM preincubated for 10 mins followed by substrate addition by scintillation counting analysis relative to control
T1 sequence (whole entry): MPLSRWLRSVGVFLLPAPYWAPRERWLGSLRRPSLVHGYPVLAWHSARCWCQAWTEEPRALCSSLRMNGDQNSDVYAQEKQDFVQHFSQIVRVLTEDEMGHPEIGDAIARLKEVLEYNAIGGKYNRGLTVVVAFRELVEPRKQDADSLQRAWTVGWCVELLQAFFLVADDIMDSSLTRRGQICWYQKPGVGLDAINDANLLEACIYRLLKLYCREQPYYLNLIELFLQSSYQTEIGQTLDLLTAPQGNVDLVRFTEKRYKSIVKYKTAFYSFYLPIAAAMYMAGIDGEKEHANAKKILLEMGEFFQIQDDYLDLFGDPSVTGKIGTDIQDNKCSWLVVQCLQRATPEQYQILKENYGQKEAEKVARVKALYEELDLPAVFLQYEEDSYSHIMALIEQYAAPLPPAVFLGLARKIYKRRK

MIA PaCa-2 [19] = test: Antitumor activity against human MIA PaCa-2 cells xenografted in NSG mouse assessed as improvement in animal survival rate at 3 mg/kg, ip administered 3 times a week for 26 days and measured 60 days post last dose; format: functional, organism-based; details: time 86.0 day
[20] = Metabolic stability in human liver microsomes assessed as compound remaining incubated for 45 mins in absence of NADPH by LC-MS/MS analysis; format: ADME, Microsome; details: 0.75 h
JJN-3 = test: Antiproliferative activity against human JJN-3 cells harboring wild type KRAS at 0.1 to 10000 nM incubated for 72 hrs by MTS assay; format: functional, cell-based; details: dose 0.1-10000 nM
MIA PaCa-2 [21] = test: cells; details: Homo sapiens, MIA PaCa-2, 72 h
[22] = Metabolic stability in CD-1 mouse liver microsomes assessed as compound remaining incubated for 45 mins in absence of NADPH by LC-MS/MS analysis; format: ADME, Microsome; details: 0.75 h
[23] = Hepatotoxicity in female NSG mouse xenografted with human RPMI-8226 cells assessed as serum ALT level at 3 mg/kg, ip administered 3 times a week for 26 days and measured 48 hrs post last dose (reference value: 30 to 98 IU/L); format: toxicity, organism-based; details: in vivo, 672 h, time 28 day
HCT-116 [24] = test: Induction of apoptosis in human HCT-116 cells assessed as late apoptotic cells at 1 uM incubated for 72 hrs in presence of geranylgeraniol by APC-Annexin-V/7-AAD staining based flow cytometry (reference value: 0%); format: functional
[25] = Cytotoxicity against human IMR-90 cells assessed as inhibition of cell growth at 10 uM incubated for 72 hrs by MTS assay relative to control; format: toxicity, cell-based
MIA PaCa-2 [26] = test: Induction of apoptosis in human MIA PaCa-2 cells assessed as late apoptotic cells at 1 uM incubated for 72 hrs by APC-Annexin-V/7-AAD staining based flow cytometry (reference value: 0.29%); format: functional
[27] = Cytotoxicity against Normal human bronchial epithelial cells assessed as inhibition of cell growth at 10 uM incubated for 72 hrs by MTS assay relative to control; format: toxicity, cell-based

Sequence of Cytochrome P450 2D6 (P10635 whole entry): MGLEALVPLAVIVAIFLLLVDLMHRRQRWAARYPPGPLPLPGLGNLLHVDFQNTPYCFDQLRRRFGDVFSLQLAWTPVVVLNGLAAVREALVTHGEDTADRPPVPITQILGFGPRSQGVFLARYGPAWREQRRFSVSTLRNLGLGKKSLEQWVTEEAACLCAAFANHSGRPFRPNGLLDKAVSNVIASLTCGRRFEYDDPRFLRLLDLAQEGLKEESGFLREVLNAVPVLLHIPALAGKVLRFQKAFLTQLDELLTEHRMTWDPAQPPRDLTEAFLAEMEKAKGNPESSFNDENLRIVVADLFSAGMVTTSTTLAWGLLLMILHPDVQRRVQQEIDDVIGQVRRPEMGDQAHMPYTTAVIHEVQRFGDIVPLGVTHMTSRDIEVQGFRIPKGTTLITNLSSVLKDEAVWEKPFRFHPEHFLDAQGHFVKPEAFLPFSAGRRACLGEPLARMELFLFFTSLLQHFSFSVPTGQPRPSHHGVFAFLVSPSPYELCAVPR

- Stability [1]: 107%
- AUC(0-t) at 24 h [2]: 254 µg·h/mL
- IC50 (Cytochrome P450 2D6): > 40000 nM
- clearance [11]: 0.2 mL/min/kg
- Stability [15]: 87.7%
- inhibition [18]: < 10%
- Stability [20]: 100%
- EC50 (MIA PaCa-2 [21]): 790 nM
- Stability [22]: 121%
Structure (SMILES): Cn1ncc2c(NC(P(=O)(O)O)P(=O)(O)O)nc(-c3cccc(C(=O)Nc4ccc(C(F)(F)F)cc4)c3)nc21
- Activity [3]: Non-Toxic
- Activity (MIA PaCa-2 [4]): inactive
- Activity [5]: 199 IU/L
- Activity [6]: 96 IU/L
- Activity (MIA PaCa-2 [7]): Active
- Activity [8]: Non-Toxic
- Activity [9]: Non-Toxic
- Activity [10]: Non-Toxic
- Activity (MIA PaCa-2 [12]): 13.4%
- Activity [13]: Non-Toxic
- Activity (HCT-116 [14]): 2.55%
- Activity [16]: Non-Toxic
- Activity [17]: Non-Toxic
- Activity (MIA PaCa-2 [19]): Active
- Activity (JJN-3): Active
- Activity [23]: 59 IU/L
- Activity (HCT-116 [24]): 2.17%
- inhibition at 72 h, 10 µM [25]: ~20%
- Activity (MIA PaCa-2 [26]): 41%
- inhibition at 72 h, 10 µM [27]: 0%
